{"source": "patent US20060069132A1", "about": "“Azolecarboxamide herbicides” (priority 2004, published 2006)", "key": {"barnyardgrass [1]": {"tested_on": "barnyardgrass", "experiment": "Test B pre-/postemergence herbicide test", "type": "in vivo, Echinochloa crus-galli", "settings": "for Barnyardgrass plant response rating: postemergence, scale 0 (no effect) to 100 (complete control)", "outline": "(§1)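 Greenhouse pot assay with simultaneous preemergence (treated seed) and postemergence (2–18 cm seedlings) applications of surfactant-containing, non-phytotoxic solvent formulations. Response scored visually 13–15 days later on a 0–100 scale, 100 meaning complete control.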"}, "Surinam grass": {"tested_on": "Surinam grass", "experiment": "Test B pre-/postemergence herbicide test", "type": "in vivo, Urochloa decumbens", "settings": "for Surinam Grass plant response rating: postemergence", "outline": "(§2)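 Pre: seeds sown, then sprayed. Post: 1–4-leaf plants (2–18 cm) sprayed at the same time. Paddy: flooded, treated at 2-leaf stage. Formulation: non-phytotoxic solvent with surfactant. Greenhouse 13–15 days; visual 0–100 score relative to controls.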"}, "cocklebur": {"tested_on": "cocklebur", "experiment": "Test B pre-/postemergence herbicide test", "type": "in vivo, Xanthium strumarium", "settings": "for Cocklebur plant response rating: postemergence, scale 0 (no effect) to 100 (complete control)", "outline": "as §1"}, "corn": {"tested_on": "corn", "experiment": "Test B pre-/postemergence herbicide test", "type": "in vivo, Zea mays", "settings": "for Corn plant response rating: postemergence", "outline": "as §2"}, "large crabgrass": {"tested_on": "large crabgrass", "experiment": "Test B pre-/postemergence herbicide test", "type": "in vivo, Digitaria sanguinalis", "settings": "for Crabgrass, Large plant response rating: postemergence", "outline": "as §2"}, "giant foxtail": {"tested_on": "giant foxtail", "experiment": "Test B pre-/postemergence herbicide test", "type": "in vivo, Setaria faberi", "settings": "for Foxtail, Giant plant response rating: postemergence", "outline": "as §2"}, "lambsquarters": {"tested_on": "lambsquarters", "experiment": "Test B pre-/postemergence herbicide test", "type": "in vivo, Chenopodium album", "settings": "for Lambsquarters plant response rating: postemergence", "outline": "as §2"}, "morningglory": {"tested_on": "morningglory", "experiment": "Test B pre-/postemergence herbicide test", "type": "in vivo, Ipomoea coccinea", "settings": "for Morningglory plant response rating: postemergence", "outline": "as §1"}, "pigweed": {"tested_on": "pigweed", "experiment": "Test B pre-/postemergence herbicide test", "type": "in vivo, Amaranthus retroflexus", "settings": "for Pigweed plant response rating: postemergence", "outline": "as §2"}, "rice [2]": {"tested_on": "rice", "experiment": "Test B pre-/postemergence herbicide test", "type": "in vivo, Oryza sativa", "settings": "0 = no effect, 100 = complete control, preemergence", "outline": "as §2"}, "velvetleaf": {"tested_on": "velvetleaf", "experiment": "Test B pre-/postemergence herbicide test", "type": "in vivo, Abutilon theophrasti", "settings": "for Velvetleaf plant response rating: postemergence", "outline": "as §2"}, "blackgrass": {"tested_on": "blackgrass", "experiment": "Test B postemergence herbicide test", "type": "in vivo, Alopecurus myosuroides", "settings": "postemergence, visual rating, scale 0 (no effect) to 100 (complete control)", "outline": "(§3)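 Greenhouse test; postemergence application to plants at 1–4 leaves (2–18 cm); paddy species at 2 leaves; evaluated visually vs controls at 13–15 days; scale 0–100 (100 = complete control).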"}, "wheat": {"tested_on": "wheat", "experiment": "Test B postemergence herbicide test", "type": "in vivo, Triticum aestivum", "set-up": "key to Wheat plant response rating: 0 = no effect, 100 = complete control", "settings": "postemergence", "outline": "(§4)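 Postemergence plants were sprayed with formulated test chemicals at 2 to 18 cm height (1- to 4-leaf stage); paddy species were grown to the 2-leaf stage. After 13 to 15 days in a greenhouse, injury was rated visually against untreated controls on a 0–100 scale (0 = no effect, 100 = complete control).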"}, "wild oat": {"tested_on": "wild oat", "experiment": "Test B postemergence herbicide test", "type": "in vivo, Avena fatua", "settings": "postemergence", "outline": "as §4"}, "rice [3]": {"tested_on": "rice", "experiment": "Test B flooded paddy test", "type": "in vivo, Oryza sativa", "settings": "1000 g ai/ha, scale 0 to 100 (0 no effect, 100 complete control)", "outline": "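Plants grow to 1- to 4-leaf stage (2–18 cm) for postemergence spraying, or to 2-leaf stage for the paddy test. Formulated compound is applied. Greenhouse holding lasts 13–15 days. Response is scored visually relative to controls, 0 no effect to 100 complete control; a dash means no result.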"}, "[4]": {"tested_on": "small flower umbrella sedge", "experiment": "Test B flooded paddy test", "type": "in vivo, Cyperus difformis", "settings": "1000 g ai/ha, scale 0 to 100 (0 no effect, 100 complete control)", "outline": "as §3"}, "ducksalad [5]": {"tested_on": "ducksalad", "experiment": "Test B flooded paddy test", "type": "in vivo, Heteranthera limosa", "settings": "1000 g ai/ha, scale 0 to 100 (0 no effect, 100 complete control)", "outline": "as §3"}, "barnyardgrass [6]": {"tested_on": "barnyardgrass", "experiment": "Test B flooded paddy test", "type": "in vivo, Echinochloa crus-galli", "settings": "1000 g ai/ha, scale 0 to 100 (0 no effect, 100 complete control)", "outline": "as §3"}, "rice [7]": {"tested_on": "rice", "experiment": "Test C flooded paddy test", "type": "in vivo, Oryza sativa", "outline": "(§5)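 Postemergence sprays applied to plants 2 to 18 cm tall (1- to 4-leaf stage); paddy species grown to 2-leaf stage under flooding. After 12 to 14 days in greenhouse, visual rating versus untreated controls on 0–100 scale (0 no effect, 100 complete control).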"}, "[8]": {"tested_on": "smallflower umbrella sedge", "experiment": "Test C flooded paddy test", "type": "in vivo, Cyperus difformis"}, "ducksalad [9]": {"tested_on": "ducksalad", "experiment": "Test C flooded paddy test", "type": "in vivo, Heteranthera limosa"}, "barnyardgrass [10]": {"tested_on": "barnyardgrass", "experiment": "Test C flooded paddy test", "type": "in vivo, Echinochloa crus-galli", "outline": "as §5"}, "[11]": {"settings": "125 g ai/ha, 0 = no effect, 100 = complete control, preemergence"}, "[12]": {"settings": "500 g ai/ha, visual rating, 0 = no effect, 100 = complete control, preemergence"}, "[13]": {"settings": "125 g ai/ha, visual rating, scale 0 (no effect) to 100 (complete control)"}, "[14]": {"settings": "500 g ai/ha, scale 0 to 100, 0 is no effect, 100 is complete control"}, "[15]": {"settings": "62 g ai/ha, scale 0 to 100 (0 no effect, 100 complete control)"}, "[16]": {"settings": "125 g ai/ha, scale 0 to 100 (0 no effect, 100 complete control)"}, "[17]": {"settings": "250 g ai/ha, scale of 0 to 100, 0 is no effect, 100 is complete control"}, "[18]": {"settings": "500 g ai/ha, visual rating after 12 to 14 days, scale 0 to 100 (0 no effect, 100 complete control)"}}}
{"compound": "CCn1nc(C(C)(C)C)cc1C(=O)Nc1cc(C(=O)N2CCOCC2)ccc1F", "note": "[Compound 243]", "values": [{"measurement": "Barnyardgrass plant response rating (0 to 100 scale)", "setting": "barnyardgrass [1]; [11]", "value": 70}, {"measurement": "Plant response rating, Barnyardgrass", "setting": "barnyardgrass [1]; [12]", "value": 90}, {"measurement": "Barnyardgrass plant response rating", "setting": "barnyardgrass [1]; 125 g ai/ha, visual rating", "value": 10}, {"measurement": "Barnyardgrass plant response rating", "setting": "barnyardgrass [1]; 500 g ai/ha, visual rating", "value": 20}, {"measurement": "Surinam Grass plant response rating (0 to 100 scale)", "setting": "Surinam grass; [11]", "value": 60}, {"measurement": "Plant response rating, Surinam Grass", "setting": "Surinam grass; [12]", "value": 80}, {"measurement": "Surinam Grass plant response rating", "setting": "Surinam grass; [13]", "value": 10}, {"measurement": "Surinam Grass plant response rating", "setting": "Surinam grass; [14]", "value": 20}, {"measurement": "Cocklebur plant response rating (0 to 100 scale)", "setting": "cocklebur; [11]", "value": 0}, {"measurement": "Plant response rating, Cocklebur", "setting": "cocklebur; [12]", "value": 20}, {"measurement": "Cocklebur plant response rating", "setting": "cocklebur; 125 g ai/ha, visual rating", "value": 10}, {"measurement": "Cocklebur plant response rating", "setting": "cocklebur; 500 g ai/ha, visual rating", "value": 30}, {"measurement": "Corn plant response rating (0 to 100 scale)", "setting": "corn; [11]", "value": 20}, {"measurement": "Plant response rating, Corn", "setting": "corn; [12]", "value": 50}, {"measurement": "Corn plant response rating", "setting": "corn; [13]", "value": 10}, {"measurement": "Corn plant response rating", "setting": "corn; [14]", "value": 10}, {"measurement": "Crabgrass, Large plant response rating (0 to 100 scale)", "setting": "large crabgrass; [11]", "value": 60}, {"measurement": "Plant response rating, Crabgrass, Large", "setting": "large crabgrass; [12]", "value": 100}, {"measurement": "Crabgrass, Large plant response rating", "setting": "large crabgrass; [13]", "value": 10}, {"measurement": "Crabgrass, Large plant response rating", "setting": "large crabgrass; [14]", "value": 10}, {"measurement": "Foxtail, Giant plant response rating (0 to 100 scale)", "setting": "giant foxtail; [11]", "value": 50}, {"measurement": "Plant response rating, Foxtail, Giant", "setting": "giant foxtail; [12]", "value": 80}, {"measurement": "Foxtail, Giant plant response rating", "setting": "giant foxtail; [13]", "value": 10}, {"measurement": "Foxtail, Giant plant response rating", "setting": "giant foxtail; [14]", "value": 20}, {"measurement": "Lambsquarters plant response rating (0 to 100 scale)", "setting": "lambsquarters; [11]", "value": 90}, {"measurement": "Plant response rating, Lambsquarters", "setting": "lambsquarters; [12]", "value": 100}, {"measurement": "Lambsquarters plant response rating", "setting": "lambsquarters; [13]", "value": 70}, {"measurement": "Lambsquarters plant response rating", "setting": "lambsquarters; [14]", "value": 80}, {"measurement": "Morningglory plant response rating (0 to 100 scale)", "setting": "morningglory; [11]", "value": 0}, {"measurement": "Plant response rating, Morningglory", "setting": "morningglory; [12]", "value": 0}, {"measurement": "Morningglory plant response rating", "setting": "morningglory; [13]", "value": 0}, {"measurement": "Morningglory plant response rating", "setting": "morningglory; [14]", "value": 20}, {"measurement": "Pigweed plant response rating (0 to 100 scale)", "setting": "pigweed; [11]", "value": 60}, {"measurement": "Plant response rating, Pigweed", "setting": "pigweed; [12]", "value": 100}, {"measurement": "Pigweed plant response rating", "setting": "pigweed; [13]", "value": 20}, {"measurement": "Pigweed plant response rating", "setting": "pigweed; [14]", "value": 60}, {"measurement": "Rice plant response rating (0 to 100 scale)", "setting": "rice [2]; 125 g ai/ha", "value": 20}, {"measurement": "Plant response rating, Rice", "setting": "rice [2]; 500 g ai/ha, visual rating", "value": 80}, {"measurement": "Velvetleaf plant response rating (0 to 100 scale)", "setting": "velvetleaf; [11]", "value": 40}, {"measurement": "Plant response rating, Velvetleaf", "setting": "velvetleaf; [12]", "value": 100}, {"measurement": "Velvetleaf plant response rating", "setting": "velvetleaf; [13]", "value": 50}, {"measurement": "Velvetleaf plant response rating", "setting": "velvetleaf; [14]", "value": 60}, {"measurement": "Blackgrass plant response rating", "setting": "blackgrass; 125 g ai/ha", "value": 0}, {"measurement": "Blackgrass plant response rating", "setting": "blackgrass; 500 g ai/ha", "value": 0}, {"measurement": "Wheat plant response rating", "setting": "wheat; [13]", "value": 0}, {"measurement": "Wheat plant response rating", "setting": "wheat; [14]", "value": 0}, {"measurement": "Oat, Wild plant response rating", "setting": "wild oat; [13]", "value": 0}, {"measurement": "Oat, Wild plant response rating", "setting": "wild oat; [14]", "value": 20}, {"measurement": "Rice plant response rating", "setting": "rice [3]", "value": 90}, {"measurement": "Sedge, Umbrella plant response rating", "setting": "[4]", "value": 80}, {"measurement": "Ducksalad plant response rating", "setting": "ducksalad [5]", "value": 90}, {"measurement": "Barnyardgrass plant response rating", "setting": "barnyardgrass [6]", "value": 90}, {"measurement": "Rice plant response rating", "setting": "rice [7]; [15]", "value": 15}, {"measurement": "Rice plant response rating", "setting": "rice [7]; [16]", "value": 75}, {"measurement": "Rice plant response rating", "setting": "rice [7]; [17]", "value": 80}, {"measurement": "Plant response rating, Rice", "setting": "rice [7]; [18]", "value": 90}, {"measurement": "Sedge, Umbrella plant response rating", "setting": "[8]; [15]", "value": 75}, {"measurement": "Sedge, Umbrella plant response rating", "setting": "[8]; [16]", "value": 80}, {"measurement": "Sedge, Umbrella plant response rating", "setting": "[8]; [17]", "value": 80}, {"measurement": "Plant response rating, Sedge, Umbrella", "setting": "[8]; [18]", "value": 80}, {"measurement": "Ducksalad plant response rating", "setting": "ducksalad [9]; [15]", "value": 75}, {"measurement": "Ducksalad plant response rating", "setting": "ducksalad [9]; [16]", "value": 85}, {"measurement": "Ducksalad plant response rating", "setting": "ducksalad [9]; [17]", "value": 90}, {"measurement": "Plant response rating, Ducksalad", "setting": "ducksalad [9]; [18]", "value": 90}, {"measurement": "Barnyardgrass plant response rating", "setting": "barnyardgrass [10]; [15]", "value": 0}, {"measurement": "Barnyardgrass plant response rating", "setting": "barnyardgrass [10]; [16]", "value": 65}, {"measurement": "Barnyardgrass plant response rating", "setting": "barnyardgrass [10]; [17]", "value": 75}, {"measurement": "Plant response rating, Barnyardgrass", "setting": "barnyardgrass [10]; [18]", "value": 85}]}
